This is an account of results in US20030203819A1, “Synergistically acting herbicidal mixtures” (priority 1998, published 2003).

Holding throughout (assay type): in vivo
One series deals with Triticum aestivum. The series is described as follows: Phytotoxicity to crop plant in the greenhouse (post-emergence treatment). From the text: (§1) The mixtures according to the invention were applied pre- or post-emergence (foliar treatment). The herbicidal compounds of component B were applied in the formulation in which they are present as commercially available product.
(§2) Some of the experiments were greenhouse experiments and some were field trials on mini plots (on a site with sandy loam (pH 6.2 to 7.0) or sandy clay (pH 5.0 to 6.7) as the soil).
(§3) The herbicidally active compounds of components A) and B) were applied in succession or jointly, in the latter case in some cases as a tank mix and in some cases as a readymix, in the form of emulsions, aqueous solutions or suspensions, the vehicle being water ([…]). In the case of the field trials, application was effected with the aid of a mobile plot sprayer.
(§4) The test period extended over 3 to 8 weeks, and the stands were also observed at later points in time.
(§5) Damage by the herbicidal compositions was evaluated with reference to a scale of 0% to 100% in comparison with untreated control plots. 0 means no damage and 100 means complete destruction of the plants.
(§6) In these examples, the value E at which only an additive effect of the individual active ingredients is to be expected was calculated by the method of S. R. Colby (Calculating synergistic and antagonistic responses of herbicide combinations, Weeds 15, 20 pp (1967).

Another series concerns Richardia brasiliensis. The series is described as follows: Herbicidal action in the field (post-emergence treatment). The following applies: Bentazone 1440 g/ha a.s.
Excerpt: as §1, §2
(§7) The harmful plants differed with regard to size and developmental state; on average, they were 5 to 20 cm long, depending on the growth habit.
as §3, §4, §5, §6

The subject of another series is Veronica ssp. The series is described as follows: Herbicidal action in the greenhouse (post-emergence treatment).
Excerpt: as §1, §2, §7, §3, §4, §5, §6

In series [1] the test system is Amaranthus retroflexus. Described as above. The following applies: Amaranthus retroflexus, post-emergence.
Excerpt: as §1, §2, §7, §3, §4, §5, §6

The subject of the next series is Anthemis mixta. The series is described as follows: Herbicidal action in the field (post-emergence treatment). The settings on record: carfentrazone-ethyl 30 g/ha a.s.
Excerpt: as §1, §2, §7, §3, §4, §5, §6

In another series the test system is Lolium perenne. The series is described as above. The following applies: paraquat-dichloride 400 g/ha a.s.
Excerpt: as §1, §2, §7, §3, §4, §5, §6

Another series concerns Panicum miliaceum. The series is described as above. The following applies: dimethenamid 841 g/ha a.s.
Excerpt: as §1, §2, §7, §3, §4, §5, §6

The next series deals with Sorghum halepense. The series is described as above. The following applies: dimethenamid 1120 g/ha a.s.
Excerpt: as §1, §2, §7, §3, §4, §5, §6

The test system of the next series is Digitaria sanguinalis. The series is described as follows: Herbicidal action in the greenhouse (pre-emergence treatment). The following applies: Dimethenamid 125 g/ha a.s.
Excerpt: as §1, §2, §7, §3, §4, §5, §6

For another series, the system named is Cyperus iria. Described as above. The settings on record: Dimethenamid 62.5 g/ha a.s.
Excerpt: as §1, §2, §7, §3, §4, §5, §6

Series [2] relates to Amaranthus retroflexus. Described as above. The settings on record: Dimethenamid 125 g/ha a.s.
Excerpt: as §1, §2, §7, §3, §4, §5, §6

Take `COCC(C)N(C(=O)CCl)c1c(C)csc1C` (stereo not shown) [Dimethenamide]: the “Phytotoxicity (%)” value in the series on Triticum aestivum (Table 83, Dimethenamide 500 g/ha a.s.) is given as 0%.

As for `CC(C)N1C(=O)c2ccccc2NS1(=O)=O` [Bentazone, bentazone, reference compound], the Damage in the series with Richardia brasiliensis is given as 77%.

Regarding `Cc1cc(-c2c(S(C)(=O)=O)ccc(C(=O)c3cnn(C)c3O)c2Cl)on1` [Ia.52, 4-[2-chloro-3-(3-methyl-isoxazol-5-yl)-4-methylsulfonylbenzoyl]-1-methyl-5-hydroxy-1H-pyrazole], the “Phytotoxicity (%)” value with Triticum aestivum (Table 83, Ia.52 62.5 g/ha a.s.) is 0%. Further, the Damage in the series on Veronica ssp. (Ia.52 15.6 g/ha a.s.) was 40%. Further, the pest or weed control at 62.5 g/ha in the series on Amaranthus retroflexus [1] (read-out: Damage, Ia.52 62.5 g/ha a.s.) worked out at 75%.

`CCOC(=O)C(Cl)Cc1cc(-n2nc(C)n(C(F)F)c2=O)c(F)cc1Cl` (stereo not shown) [carfentrazone-ethyl, reference compound]: in the series with Anthemis mixta, the Damage is 0%. Also, in the series with Amaranthus retroflexus [1] (read-out: Damage, carfentrazone-ethyl 0.9 g/ha a.s.), the pest or weed control at 0.9 g/ha amounted to 60%.

For the compound `C[n+]1ccc(-c2cc[n+](C)cc2)cc1` [paraquat-dichloride, reference compound], the Damage in the series with Lolium perenne worked out at 97%.

As for `COCC(C)N(C(=O)CCl)c1c(C)csc1C` (stereo not shown) [Dimethenamid, dimethenamid, reference compound], the Damage in the series with Panicum miliaceum came to 23%; with Sorghum halepense, 7%; in the series on Digitaria sanguinalis, 80%; in the series on Cyperus iria, 95%; in the series with Amaranthus retroflexus [2], 80%; in the series with Veronica ssp. (Dimethenamid 500 g/ha a.s. (Table 43)) it was 70%. Further, the Damage in the series on Veronica ssp. (Dimethenamid 500 g/ha a.s. (Table 45)) is 70%. Further, the pest or weed control at 500 g/ha with Amaranthus retroflexus [1] (Dimethenamnid 500 g/ha a.s., read-out: Damage) amounted to 10%.
